Entries after “also recorded” stand apart in the source; their conditions may differ.
How the values were obtained:
[1] = system: prostaglandins of the E series; conditions: cited from earlier work
mice = assay: PBQ Writhing Assay (analgesic activity); format: in vivo, mouse (Charles River male albino mice); conditions: for rank order of potency in the Writhing Assay: PBQ writhing; for PBQ writhing assay, I.G. (activity): 30 mg/kg i.g.; for PBQ writhing assay, S.C. (activity): 30 mg/kg s.c.
From the text: The Writhing Assay is one of the most widely-used experimental procedures for measuring the analgesic activity of different narcotic and nonnarcotic analgesic agents, and involves the continuous, chemically-induced pain of visceral origin to an animal, such as a mouse or rat. [Gyires et al., Arch. int. Pharmacodyn, 267, 131-140 (1984); C. Vander Wende et al., Fed. Proc., 15, 494 (1956); Koster et al., Fed. Proc., 18, 412 (1959); and Witken et al., J. Pharmacol. exp. Ther., 133, 400-408 (1961).] Chemicals which may be used to induce this pain include phenylbenzoquinone (PBQ) and acetic acid. As a result of the chemical irritation to the animal, a characteristic stretching and writhing of the animal (dorsiflexion of the animal's back, extension of its hindlimbs and the strong contraction of its abdominal musculature) will generally occur. […] Drugs which reduce the number of writhes of the animal appear to restore the normal nociceptive threshold of the animal.
Charles River male albino mice, weighing 20 to 30 grams were used in this assay.
Thirty minutes after subcutaneous or intragastric administration to ten mice of 30 mg per kilogram of body weight of a compound of the present invention ("test compound"), […] per 10 g of body weight of a 0.025% w/v solution of PBQ was injected intraperitoneally into each mouse. Ten mice which were given saline in place of a test compound of the invention were used as a control group.
Five minutes later, each mouse was individually placed into a glass beaker for observation, and the number of writhes occurring during the following ten-minute period was counted.
A test compound was considered to have produced analgesia in a mouse if, in accordance with the conditions set forth above, and under the test criteria employed for this assay, after the administration of 30 mg per kilogram of body weight of a compound of the present invention to the mouse, the number of writhes elicited by a mouse injected with PBQ was equal to, or less than, one-half the median number of writhes recorded for the saline-treated control group of mice that day, as described by Taber in "Predictive Value of Analgesic Assays in Mice and Rats," Advances in Biochemical Psychopharmacology, 8, 191 (1974).
The standard initial screening dose of a test compound employed in this assay was 30 mg per kilogram of body weight for both routes of administration. If this initial screening dose of the test compound produced analgesia in seven out of ten mice, then the effect of additional doses of the test compound on the writhing response was evaluated, and then the ED50 dose was generally calculated. (The slopes of the dose-response curves for all test compounds analyzed were compared as described by Tallarida and Murray, Manual of Pharmacologic Calculations, Page 11 (Springer Verlag, N.Y., 1981)).

[2] = target: T1, prostaglandin E2-induced contractions of segments of guinea pig ileum (Cavia porcellus, UniProt A0A286XHJ6); assay: Prostaglandin (PGE) Antagonism Assay, guinea pig ileum; format: cell-based; parameters: key to PGE antagonism in guinea pig ileum (activity): Active: A concentration of the test compound was determined to be "active" if it produced a dose ratio significantly greater than that obtained in a series of blank treatments
T1 construct: Segments of ileum about 2 cm long were then cut and mounted in a 10-mL tissue bath; from tissue; host or cells: ileum segments of male albino guinea pigs
T1 sequence (A0A286XHJ6 1-405): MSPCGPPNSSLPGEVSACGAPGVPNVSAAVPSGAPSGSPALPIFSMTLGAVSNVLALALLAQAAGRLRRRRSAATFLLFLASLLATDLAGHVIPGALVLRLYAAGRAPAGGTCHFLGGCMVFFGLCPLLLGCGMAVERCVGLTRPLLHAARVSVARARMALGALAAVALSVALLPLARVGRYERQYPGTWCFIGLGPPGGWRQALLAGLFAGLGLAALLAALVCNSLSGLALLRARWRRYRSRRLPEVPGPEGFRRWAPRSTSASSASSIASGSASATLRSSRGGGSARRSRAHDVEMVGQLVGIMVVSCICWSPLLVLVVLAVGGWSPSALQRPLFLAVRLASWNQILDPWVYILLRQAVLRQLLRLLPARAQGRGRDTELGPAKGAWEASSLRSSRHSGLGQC
Experimental: In order to determine the effectiveness of compounds of the invention ("test compounds") as prostaglandin E2 antagonists, a prostaglandin antagonism assay was conducted, as described below, to determine the ability of these compounds to inhibit prostaglandin E2 -induced contractions of segments of guinea pig ileum.
Male albino guinea pigs weighing 200 to 500 grams were sacrificed by cervical dislocation.
The ileums were then quickly removed from the guinea pigs and placed in a modified Tyrode solution, a solution which is known to those of skill in the art, containing one-half of the usual amount of magnesium ions.
Segments of ileum about 2 cm long were then cut and mounted in a 10-mL tissue bath containing the modified Tyrode solution. The solution was maintained at 37° C. and aerated with a gaseous mixture of 95% oxygen and 5% carbon dioxide.
Submaximal contractions of the ileum segments were then generated by injecting prostaglandin E2 into the bath, and detected isotonically. Data for a control prostaglandin E2 dose response curve plotting concentration of prostaglandin E2 versus number of contractions generated was then obtained by experimentally adjusting the dose of the prostaglandin E2 being injected into the tissue bath, in a manner known by those of skill in the art.
Solutions or suspensions containing an initial amount of a test compound in modified Tyrode solution ("test solutions/ suspensions") were then separately substituted for the tissue bath. […]
If the initial concentration of a test compound was determined to be "active," then varying concentrations of the test compound were then assayed.
The pA2 value (a statistical constant which is a common measure of expressing the potency of a particular drug as a competitive antagonist) was then calculated for the test compound by schild plot calculations, as described by H.O. Schild, "pA, A New Scale for the Measurement of Drug Antagonism," Br. J. Pharmacol, 2, 189 (1947), according to the following mathematical formula: […]
to quantitate the effectiveness of the test compound as a prostaglandin E2 antagonist.

[3] = system: stimulant actions of prostaglandins on isolated smooth muscle preparations; conditions: cited from earlier work
[4] = system: micturition reflex in rats; conditions: urethane-anesthetized rats; cited from earlier work

In the case of `O=C(CCCCCl)NNC(=O)N1Cc2ccccc2Oc2ccc(Cl)cc21` [8-chlorodibenz[b,f][1,4]-oxazepine-10(11H)-carboxylic acid, 2-(5-chloro-1-oxopentyl)hydrazide], the “antagonism of prostaglandins of the E series” value [1] is given as “competitive antagonists of prostaglandins of the E series”.

In the case of `CC(=O)NNC(=O)N1Cc2ccccc2Oc2ccc(Cl)cc21` [8-chlorodibenz[b,f][1,4]-oxazepine-10(11H-carboxylic acid, 2-acetylhydrazide], the “antagonism of prostaglandins of the E series” value [1] is listed as “competitive antagonists of prostaglandins of the E series”.

For `CCS(=O)(=O)CCC(=O)NNC(=O)N1Cc2cc(OC)ccc2Oc2ccc(Cl)cc21` [Example 3, 8-chloro-2-methoxydibenz[b,f][1,4]oxazepine-10(11H)-carboxylic acid, 2-[3-(ethylsulfonyl)-1-oxopropyl]hydrazide], the “rank order of potency in the Writhing Assay” value (“rank order of potency” for short) (mice) was “Example 4>Example 8>Example 7>Example 3”.

In the case of `CCS(=O)(=O)CCC(=O)NNC(=O)N1Cc2cc(O)ccc2Oc2ccc(Cl)cc21` [Example 4, 8-chloro-2-hydroxydibenz[b,f][1,4]oxazepine-10(11H)-carboxylic acid, 2-[3-(ethylsulfonyl)-1-oxopropyl]hydrazide], the “PBQ writhing assay, I.G. (activity)” value (mice) is reported as “Active”, the “PBQ writhing assay, S.C. (activity)” value (mice) is reported as “Active” and the ED50 (mice; Mus musculus, po, 0.5 h, intragastric, read-out: PBQ writhing assay ED50, I.G.) is reported as 12.6 mg/kg. The “rank order of potency” value (mice) was “Example 4>Example 8>Example 7>Example 3; also recorded: the most potent compound of the invention tested in this assay”, the “activity as prostaglandin E2 antagonist, in words” value ([2]; guinea pig ileum) was “exhibits activity as a prostaglandin E2 antagonist” and the “PGE antagonism in guinea pig ileum (activity)” value ([2]; guinea pig ileum segments, 37° C.) was “Active”. It also gave a Kb ([2]; guinea pig ileum segments, 37° C., Schild plot, read-out: PGE antagonism in guinea pig ileum (pA2) (converted)) of 3.98 µM.

For `CCS(=O)(=O)CCC(=O)NNC(=O)N1Cc2ccc(OC)cc2Oc2ccc(Cl)cc21` [Example 7, 8-chloro-3-methoxydibenz[b,f][1,4]oxazepine-10(11H)-carboxylic acid, 2-[3-(ethylsulfonyl)-1-oxopropyl]hydrazide], the “PBQ writhing assay, I.G. (activity)” value (mice) was “Active” and the “rank order of potency” value (mice) was “Example 4>Example 8>Example 7>Example 3”.

In the case of `CCS(=O)(=O)CCC(=O)NNC(=O)N1Cc2ccc(O)cc2Oc2ccc(Cl)cc21` [Example 8], the “PBQ writhing assay, I.G. (activity)” value (mice) is reported as “Active”, the “PBQ writhing assay, S.C. (activity)” value (mice) is reported as “Active” and the “rank order of potency” value (mice) is reported as “Example 4>Example 8>Example 7>Example 3”.

In the case of `O=C(Cc1ccccc1)NNC(=O)N1Cc2ccccc2Oc2ccc(Cl)cc21` [SC-18637], the “inhibition of stimulant actions of prostaglandins” value [3] is listed as “inhibit the stimulant actions of prostaglandins on isolated smooth muscle preparations”.

For `CC(=O)NNC(=O)N1Cc2ccccc2Oc2ccc(Cl)cc21` [SC-19220], the “inhibition of stimulant actions of prostaglandins” value [3] is listed as “inhibit the stimulant actions of prostaglandins on isolated smooth muscle preparations”, the bladder capacity [4] is listed as “increased the bladder capacity” and the “voiding efficiency of micturition” value [4] is listed as “reduced the voiding efficiency of micturition”.

Reference: patent US5180720A, “2- and 3-alkoxy or hydroxy-8-substituted-dibenz[b,f]-[1,4]oxazepine-10(11H)-carboxylic acid, substituted hydrazides and methods for treating pain” (G. D. Searle & Co., priority 1991, dated 1993)
